Entries after “also recorded” stand apart in the source; their conditions may differ.

Tested on in one data set: not listed separately
Put plainly: Brain tissue binding (equilibrium dialysis). Format: in vitro ADME. As to conditions: mouse, brain homogenate. The method, then:
tissues were diluted (brain: 1:10, w/v; liver: 1:10,000, w/v) with Krebs buffer containing 100 mM Tris-HCl (pH 8.1), 10 mM KCl and 1 mM EDTA, and sonicated.
80 µl of the resulting tissue homogenates were incubated for 40 min at 37 °C with 20 µl aliquots of aqueous solutions of the test compounds (or water in controls), 10 µM kynurenine, 1 mM NADPH, 3 mM glucose-6-phosphate and 1U/ml glucose-6-phosphate dehydrogenase in a total volume of 200 µl. The reaction was terminated by the addition of 50 µl of 6% perchloric acid, the denatured proteins were removed by centrifugation, and newly synthesized 3-HK was quantified by HPLC with electrochemical detection (Coulochem 5100A; ESA, Chelmsford, MA) at an oxidation potential of […].
The methodology employed was a modification of that reported previously20. […]
for 1 minute and then centrifuged at 3000 rpm in 96-well blocks for 15 minutes (Allegra X12-R, Beckman Coulter, USA). All samples were analysed by means of UPLC/MS/MS on a Xevo TQs micro Mass Spectrometer (Waters Corporation, USA).
The unbound fraction was determined as the ratio of the peak area in artificial CSF to that in brain, with correction for dilution factor according to equation (5)21, […]
((1/f ! ,!""!#$%& ) − 1) + 1/D where D = dilution factor in brain homogenate and fu,apparent is the measured free fraction of diluted brain homogenate. […]
`CCOC(=O)CN1C(=O)COc2cc(C)c(Cl)c(C)c21` [1b]: the unbound share (fraction unbound) at 5 h, 10 µg/g was found to be 0.016.
`Cc1cc2c(c(C)c1Cl)N(CC(=O)O)C(=O)CO2` [compound 1, (6-chloro-5,7-dimethyl-3-oxo-2,3-dihydro-4H-1,4-benzoxazin-4-yl) acetic acid] displayed a fraction unbound at 5 h, 10 µg/g of 0.3.

A further data set has as its system K562 cells. Put plainly: Competition assay for uptake of riboflavin. Format: cell-based, Human. The note with it: 1 µM riboflavin plus 100 µM compound, time 1. Details: key to Mean FL2-A, compound only: relative fluorescence units. The method, then: Riboflavin transporters are equilibrative rather than concentrative, and the uptake of the inhibitors would be hard to measure directly. To assess whether the KMO inhibitors were substrates for riboflavin transporters, we assessed their ability to compete with riboflavin for uptake into cells. Riboflavin is intensely fluorescent, and is taken up in human cells by three main transporters SLC52A1, SLC52A2 and SLC52A3[28]. […] Consequently, we incubated cells with 1 μM riboflavin in the absence and presence of the various KMO inhibitors. There was a background fluorescence of some 100 relative fluorescence units. […] The data are summarised in Fig. 3c, and are consistent with the view that at least some of the KMO inhibitor uptake is likely to go via riboflavin transporters.
Supplementary Figure 15. A. Uptake of riboflavin into K562 cells. K562 cells were suspended in Dulbecco's phosphate-buffered saline (DPBS) supplemented with 5 mM glucose + 1 % fetal bovine serum (FBS) at a density of 0.5 x 10^6 cells/mL.
Compounds were added to Eppendorf tubes and DMSO removed through drying (vacuum centrifuge). Riboflavin was present at 1 µM and inhibitor 1 or prodrugs at 100 µM. 500 µL cells were added to Eppendorf tubes (containing the compound(s) of interest) and fluorescence measured immediately (excitation 488 nm, emission 525 ± 25nm) in a SONY SH800 flow cytometer over 300 s. Cells were maintained at 37 ℃ throughout in a water bath. Each symbol is the mean fluorescence of ~30 cells observed over a period of 1s. Purple, 1 µM riboflavin only; Red, 100 µM compound only; Blue, 1 µM riboflavin plus 100 µM compound; Green, no additions (control).
Note that the external concentration of riboflavin was rather critical, as the riboflavin transporters also catalyse exchange reactions with their various substrates. B.
Structures of KMO inhibitors and prodrugs and riboflavin, and their maximum common substructures (shown as a blue oval on 1). C. Gating strategy employed in this assay. Gate applied to K562 cell population is marked with a black line. SSC, side scatter, FSC, Forward scatter.
(1 picture or pasted object on this page, not shown here)
On to `COC(=O)CN1C(=O)COc2cc(C)c(Cl)c(C)c21` [1a], for which the “Mean FL2-A, compound + riboflavin (RF)” value was 66.6886.
Take `CCOC(=O)CN1C(=O)COc2cc(C)c(Cl)c(C)c21` [1b]: the “Mean FL2-A, compound + riboflavin (RF)” value is on record as 68.4214.
`Cc1cc2c(c(C)c1Cl)N(CC(=O)O)C(=O)CO2` [compound 1, (6-chloro-5,7-dimethyl-3-oxo-2,3-dihydro-4H-1,4-benzoxazin-4-yl) acetic acid]: the “Mean FL2-A, compound + riboflavin (RF)” value was 57.8501.
On to `Cc1cc2c(c(C)c1Cl)N(CC(=O)OC(C)C)C(=O)CO2` [1c], for which the “Mean FL2-A, compound + riboflavin (RF)” value turned out to be 59.0947.

The same data set, now with this note: 1 µM riboflavin plus 100 µM compound, time 2.
As for `COC(=O)CN1C(=O)COc2cc(C)c(Cl)c(C)c21` [1a], the “Mean FL2-A, compound + riboflavin (RF)” value is on record as 77.0559.
As for `CCOC(=O)CN1C(=O)COc2cc(C)c(Cl)c(C)c21` [1b], the “Mean FL2-A, compound + riboflavin (RF)” value is 59.9856.
In the case of `Cc1cc2c(c(C)c1Cl)N(CC(=O)O)C(=O)CO2` [compound 1, (6-chloro-5,7-dimethyl-3-oxo-2,3-dihydro-4H-1,4-benzoxazin-4-yl) acetic acid], the “Mean FL2-A, compound + riboflavin (RF)” value worked out at 68.195.
In the case of `Cc1cc2c(c(C)c1Cl)N(CC(=O)OC(C)C)C(=O)CO2` [1c], the “Mean FL2-A, compound + riboflavin (RF)” value is given as 60.924.

The data set is the same for the next values; noted with them: 1 µM riboflavin plus 100 µM compound, time 3.
With `COC(=O)CN1C(=O)COc2cc(C)c(Cl)c(C)c21` [1a], the “Mean FL2-A, compound + riboflavin (RF)” value worked out at 76.3441.
Regarding `CCOC(=O)CN1C(=O)COc2cc(C)c(Cl)c(C)c21` [1b], the “Mean FL2-A, compound + riboflavin (RF)” value turned out to be 60.5407.
Turning to `Cc1cc2c(c(C)c1Cl)N(CC(=O)O)C(=O)CO2` [compound 1, (6-chloro-5,7-dimethyl-3-oxo-2,3-dihydro-4H-1,4-benzoxazin-4-yl) acetic acid], the “Mean FL2-A, compound + riboflavin (RF)” value was 76.5831.
`Cc1cc2c(c(C)c1Cl)N(CC(=O)OC(C)C)C(=O)CO2` [1c]: the “Mean FL2-A, compound + riboflavin (RF)” value is reported as 73.4972.

Staying with this data set, now noted: 1 µM riboflavin, compound 100 µM.
In the case of `COC(=O)CN1C(=O)COc2cc(C)c(Cl)c(C)c21` [1a], the “Inhibition of riboflavin uptake” value was “inhibit riboflavin uptake”.
Same read-out and setting: the same measure for `CCOC(=O)CN1C(=O)COc2cc(C)c(Cl)c(C)c21` [1b]: “inhibit riboflavin uptake; also recorded: higher inhibition”; for `Cc1cc2c(c(C)c1Cl)N(CC(=O)O)C(=O)CO2` [compound 1, (6-chloro-5,7-dimethyl-3-oxo-2,3-dihydro-4H-1,4-benzoxazin-4-yl) acetic acid]: “inhibit riboflavin uptake”; for `Cc1cc2c(c(C)c1Cl)N(CC(=O)OC(C)C)C(=O)CO2` [1c]: “inhibit riboflavin uptake”.

The same data set, now with this note: compound 100 µM, time 1.
Regarding `COC(=O)CN1C(=O)COc2cc(C)c(Cl)c(C)c21` [1a], the “Mean FL2-A, compound only” value came to 62.8068.
Turning to `CCOC(=O)CN1C(=O)COc2cc(C)c(Cl)c(C)c21` [1b], the “Mean FL2-A, compound only” value is on record as 59.4089.
As to `Cc1cc2c(c(C)c1Cl)N(CC(=O)O)C(=O)CO2` [compound 1, (6-chloro-5,7-dimethyl-3-oxo-2,3-dihydro-4H-1,4-benzoxazin-4-yl) acetic acid], the “Mean FL2-A, compound only” value is recorded as 58.5977.
Same read-out and setting: the same measure for `Cc1cc2c(c(C)c1Cl)N(CC(=O)OC(C)C)C(=O)CO2` [1c]: 60.7763.

The same data set, now with this note: compound 100 µM, time 2.
As for `COC(=O)CN1C(=O)COc2cc(C)c(Cl)c(C)c21` [1a], the “Mean FL2-A, compound only” value is 65.3939.
With `CCOC(=O)CN1C(=O)COc2cc(C)c(Cl)c(C)c21` [1b], the “Mean FL2-A, compound only” value was determined as 74.4694.
Regarding `Cc1cc2c(c(C)c1Cl)N(CC(=O)O)C(=O)CO2` [compound 1, (6-chloro-5,7-dimethyl-3-oxo-2,3-dihydro-4H-1,4-benzoxazin-4-yl) acetic acid], the “Mean FL2-A, compound only” value was determined as 60.0072.
With `Cc1cc2c(c(C)c1Cl)N(CC(=O)OC(C)C)C(=O)CO2` [1c], the “Mean FL2-A, compound only” value is 66.3048.

Staying with this data set, now noted: compound 100 µM, time 3.
With `COC(=O)CN1C(=O)COc2cc(C)c(Cl)c(C)c21` [1a], the “Mean FL2-A, compound only” value is listed as 65.9534.
With `CCOC(=O)CN1C(=O)COc2cc(C)c(Cl)c(C)c21` [1b], the “Mean FL2-A, compound only” value amounted to 63.9701.
Still for that read-out and setting: the same measure for `Cc1cc2c(c(C)c1Cl)N(CC(=O)O)C(=O)CO2` [compound 1, (6-chloro-5,7-dimethyl-3-oxo-2,3-dihydro-4H-1,4-benzoxazin-4-yl) acetic acid]: 67.7034.
For `Cc1cc2c(c(C)c1Cl)N(CC(=O)OC(C)C)C(=O)CO2` [1c], the “Mean FL2-A, compound only” value is listed as 65.3995.

One may read the fraction unbound as the share of the substance not bound to proteins or other matrix.

Values taken from article PMC6656724 (Communications Biology, 2019).
